# Columns and labels:
# [1] = target: Protein kinase C theta type (Homo sapiens, UniProt Q04759); assay: Inhibition of human recombinant full length His tagged PKC theta expressed in baculovirus using ERMRPRKRQGSVRRRV peptide as substrate incubated for 60 mins in presence of [33P] gammaATP by microbeta liquid scintillation counter
# Homo sapiens [2] = species on record: Homo sapiens; assay: Selectivity ratio Ki for recombinant full length PKC delta (unknown origin) to Ki for human recombinant full length His-tagged PKC theta
# PBMC = assay: Inhibition of IL-2 secretion from human PBMC cells stimulated with anti-CD3/CD28 measured after 24 hrs by bead-based FLISA; assay type: functional, cell-based
# Homo sapiens [3] = species on record: Homo sapiens; assay: Selectivity ratio Ki for recombinant full length PKC alpha (unknown origin) to Ki for human recombinant full length His-tagged PKC theta
# [4] = Lipophilicity, logD of compound; assay type: physicochemical; details: octanol/water
# [5] = Permeability across apical to basolateral side in human Caco2 cells measured at 120 mins by LC-MS/MS analysis; assay type: ADME, cell-based; details: Caco-2, read-out: permeability
# [6] = target: Protein kinase C alpha type (Homo sapiens, UniProt P17252); assay: Inhibition of recombinant full length PKC alpha (unknown origin) using RRRRRKGSFKRKA peptide as substrate measured after 15 mins in presence of ATP by spectrophotometric analysis
# [7] = target: Protein kinase C delta type (Homo sapiens, UniProt Q05655); assay: Inhibition of recombinant full length PKC delta (unknown origin) using ERMRPRKR- QGSVRRRV peptide as substrate measured after 15 mins in presence of ATP by spectrophotometric analysis
# Protein kinase C delta type, sequence (Q05655 whole entry): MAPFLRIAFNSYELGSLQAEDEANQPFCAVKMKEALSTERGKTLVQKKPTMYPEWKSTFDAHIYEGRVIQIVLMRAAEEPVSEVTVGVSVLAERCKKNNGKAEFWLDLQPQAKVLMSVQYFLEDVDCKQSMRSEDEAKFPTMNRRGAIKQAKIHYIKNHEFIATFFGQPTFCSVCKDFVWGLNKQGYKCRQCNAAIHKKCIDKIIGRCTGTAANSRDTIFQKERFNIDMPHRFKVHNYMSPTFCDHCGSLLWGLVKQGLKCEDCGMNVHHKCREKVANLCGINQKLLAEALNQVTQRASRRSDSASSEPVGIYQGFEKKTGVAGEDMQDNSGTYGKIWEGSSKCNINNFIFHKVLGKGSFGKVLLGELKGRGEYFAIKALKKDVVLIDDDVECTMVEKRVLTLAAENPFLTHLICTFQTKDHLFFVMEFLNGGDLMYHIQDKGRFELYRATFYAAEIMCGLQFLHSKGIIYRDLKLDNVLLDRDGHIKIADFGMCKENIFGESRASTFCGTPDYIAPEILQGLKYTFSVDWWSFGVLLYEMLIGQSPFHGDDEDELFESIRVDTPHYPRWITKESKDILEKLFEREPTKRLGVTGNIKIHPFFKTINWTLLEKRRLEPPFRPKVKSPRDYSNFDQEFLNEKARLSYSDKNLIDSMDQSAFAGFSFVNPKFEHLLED
# [8] = target: Rho-associated protein kinase (Homo sapiens, UniProt O75116+Q13464); assay: Inhibition of ROCK (unknown origin) using Myelin Basic Protein as substrate incubated for 60 mins in presence of [33P] gammaATP by microbeta liquid scintillation counter; assay type: protein assay
# [9] = target: Tyrosine-protein kinase JAK2 (Homo sapiens, UniProt O60674); assay: Inhibition of JAK2 (unknown origin) using polyE4Y peptide as substrate incubated for 60 mins in presence of [33P] gammaATP by microbeta liquid scintillation counter
# Tyrosine-protein kinase JAK2, sequence (O60674 whole entry): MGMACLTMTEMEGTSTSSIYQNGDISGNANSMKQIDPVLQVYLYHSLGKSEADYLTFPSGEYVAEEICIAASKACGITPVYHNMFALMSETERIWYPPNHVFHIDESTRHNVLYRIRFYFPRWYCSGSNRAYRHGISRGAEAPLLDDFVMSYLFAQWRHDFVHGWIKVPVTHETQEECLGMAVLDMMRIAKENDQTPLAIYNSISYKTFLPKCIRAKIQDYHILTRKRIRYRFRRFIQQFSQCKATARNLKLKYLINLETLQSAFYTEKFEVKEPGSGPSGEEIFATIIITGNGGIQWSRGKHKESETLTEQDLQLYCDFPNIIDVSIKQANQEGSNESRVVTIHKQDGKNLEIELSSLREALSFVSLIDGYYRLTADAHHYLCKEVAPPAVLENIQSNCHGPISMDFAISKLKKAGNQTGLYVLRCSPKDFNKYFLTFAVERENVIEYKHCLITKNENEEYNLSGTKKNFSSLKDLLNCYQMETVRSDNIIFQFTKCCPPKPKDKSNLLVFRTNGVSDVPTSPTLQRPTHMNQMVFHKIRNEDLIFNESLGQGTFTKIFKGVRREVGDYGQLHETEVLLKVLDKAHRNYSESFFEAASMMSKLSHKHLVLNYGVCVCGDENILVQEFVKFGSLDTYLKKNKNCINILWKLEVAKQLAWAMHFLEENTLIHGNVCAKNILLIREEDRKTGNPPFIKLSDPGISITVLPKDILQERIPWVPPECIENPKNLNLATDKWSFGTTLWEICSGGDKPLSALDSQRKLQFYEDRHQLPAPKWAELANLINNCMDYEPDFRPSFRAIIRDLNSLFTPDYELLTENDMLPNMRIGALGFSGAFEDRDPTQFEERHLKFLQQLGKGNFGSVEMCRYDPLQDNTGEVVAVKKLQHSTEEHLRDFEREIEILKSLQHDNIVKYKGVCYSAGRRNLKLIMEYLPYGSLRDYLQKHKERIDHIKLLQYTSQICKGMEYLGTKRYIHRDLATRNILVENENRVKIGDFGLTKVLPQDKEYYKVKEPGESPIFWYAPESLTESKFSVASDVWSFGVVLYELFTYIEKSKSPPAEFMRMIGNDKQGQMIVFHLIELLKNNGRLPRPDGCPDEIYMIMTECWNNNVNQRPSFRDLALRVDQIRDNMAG
# [10] = Unbound hepatic clearance in rat hepatocytes assessed per million cells; assay type: ADME, cell-based, Hepatocyte
# [11] = Unbound hepatic clearance in human hepatocytes assessed per million cells; assay type: ADME, cell-based, Hepatocyte
# [12] = Clearance in iv dosed rat; assay type: ADME, organism-based; details: in vivo
# [13] = Half-life in iv dosed rat; assay type: ADME, organism-based; details: in vivo
# [14] = Volume of distribution at steady state in iv dosed rat; assay type: ADME, organism-based; details: in vivo, read-out: Vdss
# [15] = Efflux ratio of permeability in human Caco2 cells by LC-MS/MS analysis; assay type: ADME, cell-based; details: Caco-2
# Cytochrome P450 2C9 = Cytochrome P450 2C9 (Homo sapiens, UniProt P11712); assay: Inhibition of CYP2C9 (unknown origin) at 4 uM; assay type: ADME
# [16] = target: Voltage-gated inwardly rectifying potassium channel KCNH2 (Homo sapiens, UniProt Q12809); assay: Inhibition of human ERG
# Voltage-gated inwardly rectifying potassium channel KCNH2, sequence (Q12809 whole entry): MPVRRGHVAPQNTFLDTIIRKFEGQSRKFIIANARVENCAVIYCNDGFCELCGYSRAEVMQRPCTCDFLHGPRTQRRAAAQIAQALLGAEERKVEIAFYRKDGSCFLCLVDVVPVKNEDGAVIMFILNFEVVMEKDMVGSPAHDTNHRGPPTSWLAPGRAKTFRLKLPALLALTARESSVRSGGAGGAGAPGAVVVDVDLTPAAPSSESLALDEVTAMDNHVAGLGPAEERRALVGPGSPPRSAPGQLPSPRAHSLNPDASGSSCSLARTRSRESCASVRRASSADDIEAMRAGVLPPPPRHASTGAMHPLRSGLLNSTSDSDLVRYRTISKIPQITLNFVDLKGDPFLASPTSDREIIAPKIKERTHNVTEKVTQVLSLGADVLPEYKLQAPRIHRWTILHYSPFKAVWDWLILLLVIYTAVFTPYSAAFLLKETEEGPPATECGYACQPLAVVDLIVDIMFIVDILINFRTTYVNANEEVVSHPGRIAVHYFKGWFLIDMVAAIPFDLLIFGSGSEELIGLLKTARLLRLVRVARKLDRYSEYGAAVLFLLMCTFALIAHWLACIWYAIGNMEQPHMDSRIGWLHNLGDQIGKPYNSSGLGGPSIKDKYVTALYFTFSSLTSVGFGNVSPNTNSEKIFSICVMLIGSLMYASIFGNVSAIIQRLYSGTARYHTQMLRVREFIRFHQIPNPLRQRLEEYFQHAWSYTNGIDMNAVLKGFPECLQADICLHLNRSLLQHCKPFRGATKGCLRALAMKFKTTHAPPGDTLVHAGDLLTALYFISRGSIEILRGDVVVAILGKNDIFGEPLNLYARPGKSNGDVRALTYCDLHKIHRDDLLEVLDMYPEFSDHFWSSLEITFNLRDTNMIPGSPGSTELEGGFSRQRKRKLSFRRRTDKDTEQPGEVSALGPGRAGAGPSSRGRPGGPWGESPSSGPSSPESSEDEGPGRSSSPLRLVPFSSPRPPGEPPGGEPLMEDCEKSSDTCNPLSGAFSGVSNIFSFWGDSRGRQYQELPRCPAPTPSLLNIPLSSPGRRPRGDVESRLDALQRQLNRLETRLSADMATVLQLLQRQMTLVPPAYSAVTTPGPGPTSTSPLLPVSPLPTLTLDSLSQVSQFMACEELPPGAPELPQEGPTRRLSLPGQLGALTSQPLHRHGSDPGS
# Cytochrome P450 2D6 = Cytochrome P450 2D6 (Homo sapiens, UniProt P10635); assay: Inhibition of CYP2D6 (unknown origin) at 8 uM; assay type: ADME
# [17] = Stability of compound in human liver microsomes assessed as compound remaining at 30 mins; assay type: ADME, Microsome; details: read-out: Stability
# [18] = Stability of compound in rat liver microsomes assessed as compound remaining at 30 mins; assay type: ADME, Microsome; details: read-out: Stability
# HFL1 = assay: Cytotoxicity against human HFL1 cells assessed as growth inhibition measured after 48 hrs by 3H-thymidine incorporation assay; assay type: cell-based
# Cytochrome P450 3A4 = Cytochrome P450 3A4 (Homo sapiens, UniProt P08684); assay: Inhibition of CYP3A4 (unknown origin) at 16 uM; assay type: ADME
# [19] = Dissociation constant, pKa of compound; assay type: physicochemical
# [20] = target: cAMP-dependent protein kinase catalytic subunit alpha (Homo sapiens, UniProt P17612); assay: Inhibition of protein kinase A (unknown origin) using Kemptide (LRRASLG) as substrate incubated for 15 mins in presence of ATP by spectrophotometric analysis
# [21] = target: T1, Receptor-type tyrosine-protein kinase FLT3 (Homo sapiens, UniProt P36888); assay: Inhibition of FLT3 (unknown origin) using polyE4Y peptide as substrate incubated for 60 mins in presence of [33P] gammaATP by microbeta liquid scintillation counter
# T1 sequence (P36888 whole entry): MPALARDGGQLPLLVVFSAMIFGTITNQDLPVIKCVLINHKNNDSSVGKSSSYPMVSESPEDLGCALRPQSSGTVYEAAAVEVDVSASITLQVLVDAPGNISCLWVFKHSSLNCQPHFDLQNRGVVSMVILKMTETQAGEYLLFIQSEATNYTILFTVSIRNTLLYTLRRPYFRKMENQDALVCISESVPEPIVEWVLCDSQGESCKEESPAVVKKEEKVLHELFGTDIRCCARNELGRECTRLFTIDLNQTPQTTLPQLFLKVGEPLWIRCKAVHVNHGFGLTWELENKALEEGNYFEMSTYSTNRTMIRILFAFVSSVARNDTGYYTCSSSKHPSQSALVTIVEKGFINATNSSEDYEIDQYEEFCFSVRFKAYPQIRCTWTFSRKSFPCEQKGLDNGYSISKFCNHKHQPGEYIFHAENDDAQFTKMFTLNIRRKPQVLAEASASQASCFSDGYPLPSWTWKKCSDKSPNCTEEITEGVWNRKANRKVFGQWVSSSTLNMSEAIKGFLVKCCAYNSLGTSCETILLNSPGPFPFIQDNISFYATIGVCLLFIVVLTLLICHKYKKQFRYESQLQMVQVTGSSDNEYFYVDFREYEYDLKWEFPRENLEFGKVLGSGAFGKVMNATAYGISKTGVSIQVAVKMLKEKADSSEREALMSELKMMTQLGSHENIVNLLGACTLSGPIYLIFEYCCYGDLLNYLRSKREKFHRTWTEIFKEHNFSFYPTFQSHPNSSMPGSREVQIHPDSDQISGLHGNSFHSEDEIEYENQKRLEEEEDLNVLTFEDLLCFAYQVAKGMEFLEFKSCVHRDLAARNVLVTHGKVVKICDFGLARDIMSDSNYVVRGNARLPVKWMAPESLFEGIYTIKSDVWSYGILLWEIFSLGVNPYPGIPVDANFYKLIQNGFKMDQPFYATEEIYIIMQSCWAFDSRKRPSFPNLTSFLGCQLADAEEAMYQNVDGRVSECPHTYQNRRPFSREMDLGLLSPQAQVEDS
# [22] = target: Glycogen synthase kinase-3 beta (Homo sapiens, UniProt P49841); assay: Inhibition of GSK-3beta (unknown origin) using HSSPHQS(PO3H2)EDEEE peptide as substrate measured after 15 mins in presence of ATP by spectrophotometric analysis
# Glycogen synthase kinase-3 beta, sequence (P49841 whole entry): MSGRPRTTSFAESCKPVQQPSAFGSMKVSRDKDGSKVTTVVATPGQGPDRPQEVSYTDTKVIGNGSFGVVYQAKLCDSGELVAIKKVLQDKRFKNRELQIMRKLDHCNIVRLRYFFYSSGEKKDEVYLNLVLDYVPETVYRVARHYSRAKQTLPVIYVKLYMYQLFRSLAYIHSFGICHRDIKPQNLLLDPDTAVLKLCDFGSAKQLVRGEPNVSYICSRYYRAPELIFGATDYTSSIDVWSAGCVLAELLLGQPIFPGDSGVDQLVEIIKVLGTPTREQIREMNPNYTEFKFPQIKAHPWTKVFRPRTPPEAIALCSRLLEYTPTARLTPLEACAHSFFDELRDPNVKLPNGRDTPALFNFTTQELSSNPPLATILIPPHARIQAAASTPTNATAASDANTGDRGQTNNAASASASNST
# [23] = target: T2, Tyrosine-protein kinase JAK3 (Homo sapiens, UniProt P52333); assay: Inhibition of JAK3 (unknown origin)
# T2 sequence (P52333 whole entry): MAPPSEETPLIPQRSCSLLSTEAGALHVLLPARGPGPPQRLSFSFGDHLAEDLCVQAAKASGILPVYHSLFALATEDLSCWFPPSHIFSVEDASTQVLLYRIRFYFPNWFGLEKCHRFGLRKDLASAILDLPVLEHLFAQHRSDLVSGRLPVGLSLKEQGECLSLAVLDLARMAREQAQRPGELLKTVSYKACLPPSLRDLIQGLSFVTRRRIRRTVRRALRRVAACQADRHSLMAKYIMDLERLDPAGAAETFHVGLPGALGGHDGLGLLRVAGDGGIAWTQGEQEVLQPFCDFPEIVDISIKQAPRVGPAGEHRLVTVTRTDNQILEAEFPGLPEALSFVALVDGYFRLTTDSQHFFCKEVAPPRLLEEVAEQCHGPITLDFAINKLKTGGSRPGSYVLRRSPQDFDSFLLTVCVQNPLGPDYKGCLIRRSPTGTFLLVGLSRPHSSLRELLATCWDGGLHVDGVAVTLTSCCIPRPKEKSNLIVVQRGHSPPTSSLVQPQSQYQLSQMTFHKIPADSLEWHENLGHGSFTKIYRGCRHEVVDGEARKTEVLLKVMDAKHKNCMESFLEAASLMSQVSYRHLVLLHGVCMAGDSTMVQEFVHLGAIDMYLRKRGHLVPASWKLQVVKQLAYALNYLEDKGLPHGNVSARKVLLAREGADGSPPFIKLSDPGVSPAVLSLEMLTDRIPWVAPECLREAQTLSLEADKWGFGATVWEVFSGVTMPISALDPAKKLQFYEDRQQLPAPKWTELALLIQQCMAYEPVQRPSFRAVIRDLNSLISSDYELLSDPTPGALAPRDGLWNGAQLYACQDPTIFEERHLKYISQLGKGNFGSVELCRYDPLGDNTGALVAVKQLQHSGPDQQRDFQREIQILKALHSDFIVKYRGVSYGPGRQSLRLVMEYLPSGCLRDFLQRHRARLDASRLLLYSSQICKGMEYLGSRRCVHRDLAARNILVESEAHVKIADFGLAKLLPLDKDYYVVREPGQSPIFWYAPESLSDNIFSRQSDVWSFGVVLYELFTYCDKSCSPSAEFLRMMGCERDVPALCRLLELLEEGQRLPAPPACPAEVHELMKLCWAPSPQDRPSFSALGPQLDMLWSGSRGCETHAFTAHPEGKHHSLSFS
# Protein kinase C theta type, sequence (Q04759 whole entry): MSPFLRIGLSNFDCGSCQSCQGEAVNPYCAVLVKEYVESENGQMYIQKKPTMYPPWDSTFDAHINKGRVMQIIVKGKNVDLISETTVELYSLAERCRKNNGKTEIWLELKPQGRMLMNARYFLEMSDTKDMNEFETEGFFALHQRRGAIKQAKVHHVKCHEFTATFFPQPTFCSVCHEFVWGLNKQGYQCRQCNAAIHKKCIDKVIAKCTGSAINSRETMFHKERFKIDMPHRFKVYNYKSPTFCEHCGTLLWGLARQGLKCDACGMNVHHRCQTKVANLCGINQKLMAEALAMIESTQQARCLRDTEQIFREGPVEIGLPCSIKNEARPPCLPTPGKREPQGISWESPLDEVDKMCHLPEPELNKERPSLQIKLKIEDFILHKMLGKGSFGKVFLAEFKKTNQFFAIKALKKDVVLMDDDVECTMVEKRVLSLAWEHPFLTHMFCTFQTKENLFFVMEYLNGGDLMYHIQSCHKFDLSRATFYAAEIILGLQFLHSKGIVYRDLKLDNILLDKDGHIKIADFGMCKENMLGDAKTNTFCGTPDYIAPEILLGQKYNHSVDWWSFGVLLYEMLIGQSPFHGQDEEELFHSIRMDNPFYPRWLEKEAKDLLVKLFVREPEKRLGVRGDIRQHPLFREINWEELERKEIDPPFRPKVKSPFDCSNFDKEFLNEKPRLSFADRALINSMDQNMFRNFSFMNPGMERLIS
Ki [1] [µM],Ratio Ki (Homo sapiens [2]),Ratio Ki (Homo sapiens [3]),Ki [7] [µM],Structure (SMILES),IC50 (PBMC) [µM],other results
< 0.001,> 16,,,CCC(C)(CN)c1cccc(-c2ccnc3[nH]nc(C)c23)c1 (configuration not stated),0.1,
0.003,13 to 24,37,,CCC(C)(CN)c1cccc(-c2ccnc3[nH]ncc23)c1 (configuration not stated),0.17,
0.014,,,0.24,CC(C)(C#N)c1cccc(-c2ccnc3[nH]ncc23)n1,,logD [4]: 2.9; Papp A→B at 2 h [5]: 201 nm/s; Ki [6]: 0.465 µM; Ki [8]: 0.21 µM; Ki [9]: 0.086 µM; CL free [10]: 24 µL/min; CL free [11]: 33 µL/min; clearance [12]: 1.32 L/h/kg; half-life [13]: 2.5 h; Vd [14]: 1.22 L/kg; efflux ratio [15]: 0.95
0.072,,,,CCC(C)(C#N)c1cccc(-c2ccnc3[nH]ncc23)c1 (configuration not stated),2.7,
0.009,,,0.184,NCC1(c2cccc(-c3ccnc4[nH]nc(C(F)(F)F)c34)c2)CCOCC1,0.13,IC50 [16]: > 10 µM; Ki [6]: 0.468 µM; Ki [20]: 0.03 µM; Ki [21]: 0.046 µM; remaining at 0.5 h [17]: 96%; remaining at 0.5 h [18]: 65%; IC50 (HFL1): 3.3 µM
0.003,,,0.012,CC(C)(C#N)c1cccc(-c2ccnc3[nH]ccc23)n1,,logD [4]: 3.4; Ki [6]: 0.11 µM; Ki [20]: 0.11 µM; Ki [22]: 0.21 µM; Ki [8]: 0.006 µM; Ki [23]: 0.003 µM; Ki [21]: 0.1 µM; Ki [9]: 0.013 µM; CL free [10]: 156 µL/min; CL free [11]: 24 µL/min; clearance [12]: 2.52 L/h/kg; half-life [13]: 0.3 h; Vd [14]: 0.99 L/kg
0.03,8,18,,NCC1(c2cccc(-c3ccnc4[nH]ncc34)c2)CCCCC1,0.58,
0.032,39,,,CCCc1cc(-c2ccnc3[nH]ncc23)cc(C(C)(CC)CN)c1 (configuration not stated),0.2,
0.012,16,50,,CC(C)(CN)c1cccc(-c2ccnc3[nH]ncc23)c1,0.33,
0.022,18,28,,NCC1(c2cccc(-c3ccnc4[nH]ncc34)c2)CCCC1,0.35,
0.0004,25,,,CCC(C)(CN)c1cccc(-c2ccnc3[nH]nc(C(F)(F)F)c23)c1 (configuration not stated),0.01,clearance [12]: 2.7 L/h/kg; half-life [13]: 1.8 h; Vd [14]: 2.7 L/kg
0.0003,22,,,CCC(C)(CN)c1cccc(-c2ccnc3[nH]nc(Cl)c23)c1 (configuration not stated),0.02,
0.0002,36,149,,C#CCC(C)(CN)c1cccc(-c2ccnc3[nH]ncc23)c1 (configuration not stated),0.02,
0.009,111,93,,NCC1(c2cccc(-c3ccnc4[nH]ncc34)c2)CCOCC1,0.55,
0.014,39,,,CCc1cc(-c2ccnc3[nH]ncc23)cc(C(C)(CC)CN)c1 (configuration not stated),0.25,
0.005,24,,,CCC(C)(CN)c1cc(C)cc(-c2ccnc3[nH]ncc23)c1 (configuration not stated),0.26,
0.028,,,0.584,CC(C)(C#N)c1cccc(-c2ccnc3[nH]ncc23)c1,,Papp A→B at 2 h [5]: 360 nm/s; Ki [8]: 0.56 µM; Ki [9]: 0.27 µM; CL free [10]: 58 µL/min; CL free [11]: 172 µL/min; clearance [12]: 0.72 L/h/kg; half-life [13]: 4.6 h; Vd [14]: 0.94 L/kg; efflux ratio [15]: 0.7

Structure (SMILES),Ki [1] [µM],Ratio Ki (Homo sapiens [2]),Ratio Ki (Homo sapiens [3]),Ki [7] [µM],IC50 (PBMC) [µM],other results
Cc1cc(-c2ccnc3[nH]nc(C(F)(F)F)c23)cc(C2(CN)CCC2)c1,0.003,,,0.135,0.06,logD [4]: 2.9; inhibition (INH) (Cytochrome P450 2C9): Active; IC50 [16]: 0.7 µM; Ki [6]: 0.06 µM; inhibition (INH) (Cytochrome P450 2D6): Active; remaining at 0.5 h [17]: 81%; remaining at 0.5 h [18]: 56%; IC50 (HFL1): 0.65 µM; inhibition (INH) (Cytochrome P450 3A4): Active; pKa [19]: 8.8
NCC1(c2cccc(-c3ccnc4[nH]ncc34)c2)CCC1,0.017,18,41,,0.3,
NCC1(c2cccc(-c3ccnc4[nH]nc(C(F)(F)F)c34)c2)CCC1,0.002,,,0.06,0.09,IC50 [16]: 3 µM; Ki [6]: 0.057 µM; remaining at 0.5 h [17]: 81%; remaining at 0.5 h [18]: 88%; IC50 (HFL1): 1.9 µM; pKa [19]: 8.8
